# Source: patent publication US5382679A, “Process for the preparation of glutathione S-acyl derivatives, compounds obtained from said process and an intermediate useful for the preparation thereof” (Boehringer Mannheim Italia S.p.A., priority 1990, dated 1995)
# Experiments:
# [1] = Enzymatic hydrolysis of thioester bond in serum; format: in vitro ADME; conditions: GSH derivative 0, 16 mM, mean ± SD on 6 tests
# Source text: (§1) |The enzymatic hydrolysis specific activity of thioester |bond is expressed as -SH released nmoles/min/mg of […]. […] Spontaneous hy- |drolysis of the substrates ranges from 1% to 10% maxi- |mum. […] |sts.
# [2] = Enzymatic hydrolysis of thioester bond in cytosol; format: in vitro ADME; conditions: GSH derivative 0, 16 mM; for enzymatic hydrolysis specific activity of thioester bond, Cytosol: mean ± SD on 6 tests
# Source text: as §1
SMILES,"enzymatic hydrolysis specific activity of thioester bond, Serum [1]","enzymatic hydrolysis specific activity of thioester bond, Cytosol [2]","Ratio (intracellular to extracellular hydrolysis rate, Cytosol/Serum) [2]"
CCOC(=O)CNC(=O)[C@H](CSC(=O)c1ccccc1)NC(=O)CC[C@H](N)C(=O)OCC [S-benzoyl-diethylester],"0,07 ± 0,005 -SH released nmoles/min/mg of","1,45 ± 0,8 -SH released nmoles/min/mg of","18,5"
"N[C@@H](CCC(=O)N[C@@H](CSC(=O)Cc1ccccc1)C(=O)NCC(=O)O)C(=O)O [S-phenylacetyl, γ-L-glutamyl-S-phenylacetyl-L-cysteinyl-glycine]","0,05 ± 0,003 -SH released nmoles/min/mg of","6,7 ± 0,9 -SH released nmoles/min/mg of","134,0"
"CCOC(=O)CNC(=O)[C@H](CSC(=O)c1ccccc1)NC(=O)CC[C@H](N)C(=O)O [S-benzoyl-monoethylester, ethyl γ-L-glutamyl-S-benzoyl-L-cysteinyl glycinate]","0,10 ± 0,004 -SH released nmoles/min/mg of","0,6 ± 0,08 -SH released nmoles/min/mg of","6,0"
"CC(C)(C)C(=O)SC[C@H](NC(=O)CC[C@H](N)C(=O)O)C(=O)NCC(=O)O [S-pivaloyl, γ-L-glutamyl-S-pivaloyl-L-cysteinyl-glycine]",0 -SH released nmoles/min/mg of,"6,9 ± 0,7 -SH released nmoles/min/mg of",–
"CC(=O)SC[C@H](NC(=O)CC[C@H](N)C(=O)O)C(=O)NCC(=O)O [S-acetyl, γ-L-glutamyl-S-acetyl-L-cysteinyl-glycine]",0 -SH released nmoles/min/mg of,"10,8 ± 1,5 -SH released nmoles/min/mg of",–
"N[C@@H](CCC(=O)N[C@@H](CSC(=O)c1ccccc1)C(=O)NCC(=O)O)C(=O)O [S-benzoyl, γ-L-glutamyl-S-benzoyl-L-cysteinyl-glycine]","0,04 ± 0,005 -SH released nmoles/min/mg of","3,2 ± 1,1 -SH released nmoles/min/mg of","80,0"
